# Measured values taken from patent US10533992B2, “Method for screening for sunlight protection functional material and method for evaluating sunlight protection effect” (AMOREPACIFIC CORPORATION, priority 2015, dated 2020).
# Key:
# [1] = system: HBD-1, HBD-2, HBD-3, LL-37, psoriasin, dermcidin, and RNase 7; assay: AMP expression (Q-RT-PCR) in keratinocytes treated with Poly I:C and the scavengers PTIO or NAC, with or without blue/violet light; type: cell-based, human
# Description: (§1) First, according to a commercially secured and recommended method, the human epidermal neonatal keratinocytes used in the present invention were purchased from Lonza, Inc. (Walkersville, Md., US), subcultured, and then cultured in a CO2 incubator under the conditions of 37° C. and 5% CO2. The culture medium was prepared according to the guideline provided by Lonza, Inc. KGM-2 Bullet kit: BPE (Bovine pituitary extract) 2 ml, hEGF (human epidermal growth factor) 0.5 ml, insulin 0.5 ml, hydrocortisone 0.5 ml, transferrin 0.5 ml, epinephrine 0.5 ml, and gentamycin sulfate+amphotericin-B(GA-1000) 0.5 ml were added to 500 ml of KBM-2 (Clonetics CC-3103) medium.
# (§2) Subsequently, blue/violet light of a wavelength from 400 to 500 nm was radiated to the medium in which human epidermal neonatal keratinocytes is cultured (10 J/cm^2). […]
# (§3) Then, the separated RNA was once again purified by using an RNA kit (QIAGEN RNeasy kt, QIAGEN, Valencia, Calif.), and then the quality of the RNA was examined by using Agilent 2100 BioAnalyzer (Agilent Technologies, Santa Clara, Calif., USA). The Superscript Reverse Transcriptase (RT) kit (Invitrogen, Carlsbad, Calif.) was used to synthesize cDNA from the RNA, and the cDNA was quantitatively analyzed through a real time-reverse transcription polymerase chain reaction (Q-RT-PCR). […]
# [2] = system: HBD-1, HBD-2, HBD-3, LL-37, psoriasin, dermcidin, and RNase7; assay: AMP expression (Q-RT-PCR) in keratinocytes treated with Poly I:C and flagellin, with or without blue/violet light; type: cell-based; details: human epidermal neonatal keratinocytes; Poly I:C and flagellin treatment; FIGS. 3a to 3g
# Description: as §1, §2, §3
Compound,"expression level of the AMPs on blue/violet light radiation ([1]; Poly I:C treated keratinocytes, blue/violet light 10 J/cm^2, scavenger treated group)","expression level of HBD-1, HBD-2, HBD-3, LL-37, psoriasin, dermcidin, and RNase7 [2]","expression level of HBD-1, HBD-2, HBD-3, LL-37, psoriasin, dermcidin, and RNase7 ([1]; human epidermal neonatal keratinocytes, Poly I:C treatment, FIGS. 4a to 4g)"
"CC1(C)N([O])C(c2ccc(C(=O)[O-])cc2)=[N+]([O-])C1(C)C.[K+] [PTIO, 2-(4-Carboxyphenyl)-4,4,5,5-tetramethylimidazoline-1-oxyl-3-oxide potassium salt]",not reduced,,
Poly I:C,,increased,increased
flagellin,,increased,
